According to patent publication US5369096A, “Glycolipid derivatives” (The Nisshin Oil Mills, Ltd., priority 1992, dated 1994):

Tests used:
[1] = system: human normal lymphocytes adhering to vascular endothelial cells of the normal human umbilical cord; assay: inhibition of adhesion of human normal lymphocytes to rhIL1β-stimulated vascular endothelial cells, liposome dispersion; format: cell-based; settings: 20 μg/ml equivalent; for Amount of human normal lymphocytes adhered (fluorescence intensity): rhIL1β 200 U/ml, 485 nm/535 nm
Method: A solution of 200 μg of phosphatidylcholine, 100 μg of cholesterol, 7.5 μg of dicetyl phosphate and 50 μg of a compound of the invention in a mixture of chloroform/methanol=2/1 (ca. 1 ml) was evaporated under reduced pressure to dryness followed by addition of 0.25 ml of a phosphate-buffered saline solution. The mixture was ultrasonicated (an output of 90 watts) for 5 min. and stirred (a vortex mixer) for 5 min. to form a liposome dispersion.
Vascular endothelial cells of the normal human umbilical cord grown to confluence were stimulated in 24-well plates with 200 U/ml of rhIL1β at 37° C. for 4 hours. After removal of the supernatant by suction, liposome dispersions each prepared from a compound of the invention in an amount of 20 μg/ml equivalent were added except for the rhIL1β-untreated group (sample 1) and the treated groups (samples 2 and 3). The mixtures were then allowed to react at room temperature for 30 min. Subsequently, human normal lymphocytes with 2',7'-bis-(carboxyethyl)-5,6-carboxyfluorescene acetoxymethyl ester fluorescent dye enclosed was added at a level of 2×10^6 cells per well followed by centrifugal operation at 100 rpm for 20 min. Each hole was washed three times followed by addition of 0.5 ml of 0.5% Triton X-100 and stirring. The contents were divided into 100 μl portions in 96-well plates and measurement was made on a Baxter fluorometer at 485 nm/535 nm.
4: rhIL1β-treated group+compound 5A-containing liposome dispersion-treated group (2EG)
5: rhIL1β-treated group+compound 5B-containing liposome dispersion-treated group (3EG)
6: rhIL1β-treated group+compound 5C-containing liposome dispersion-treated group (4EG)
7: rhIL1β-treated group+compound 5D-containing liposome dispersion-treated group (5EG)
Amount adhered and % inhibition of adhesion of human normal lymphocytes as measured from fluorescence intensity are shown in Table 4 below.

[2] = system: human normal lymphocytes adhering to vascular endothelial cells of the normal human umbilical cord; assay: inhibition of adhesion of human normal lymphocytes to rhIL1β-stimulated vascular endothelial cells, oily emulsion; format: cell-based; settings: 20 μg/ml equivalent; for Amount adhered (fluorescence intensity): rhIL1β 200 U/ml, 485 nm/535 nm
Method: A mixed solution of 6 mg of egg yolk lecithin (manufactured by Nacalaitesque Inc.), 30 μl of soybean oil J. P. (manufactured by Yoshida Seiyaku), 470 μl of distilled water for injection (manufacturedby Otsuka Seiyaku) and 125 μg of a compound of the invention was ultrasonicated (an output of 90 watts) for 10 min. to prepare an oily emulsion. The oily emulsion was further passed through a polycarbonate membrane filter having 0.2 μm average pore diameter (manufactured by Millipore) to provide an average particle size of 0.2 μm.
Vascular endothelial cells of the normal human umbilical cord grown to confluence were stimulated in 24-well plates with 200 U/ml of rhIL1ββat 37° C. for 4 hours. After removal of the supernatant by suction, oily emulsions each prepared from a compound of the invention in an amount of 20 μg/ml equivalent were added except for the rhIL1β-untreated (Sample 1) and treated groups (Samples 2 and 3). The mixtures were then allowed to react at room temperature for 30 min. Subsequently, human normal lymphocytes with 2',7'-bis(carboxyethyl)-5,6-carboxyfluorescence acetoxymethyl ester fluorescent dye enclosed was added at a level of 2×10^6 cells per well followed by centrifugal operation at 100 rpm for 20 min. Each well was washed three times followed by addition of 0.5 ml of 0.5% Triton X-100 and stirring. The contents were divided into 100 μl portions in 96-well plates and measurement was made on a Baxter fluorometer at 485 nm/535 nm.
4: rhIL1β-treated group+2→3 sialyl Lewis X-containing oily emulsion dispersion-treated group
5: rhIL1β-treated group+compound 5E-containing oily emulsion dispersion-treated group (OEG)
6: rhIL1β-treated group+compound 5A-containing oily emulsion dispersion-treated group (2EG)
7: rhIL1β-treated group+compound 5B-containing oily emulsion dispersion-treated group (3EG)
8: rhIL1β-treated group+compound 5C-containing oily emulsion dispersion-treated group (4EG)
9: rhIL1β-treated group+compound 5D-containing oily emulsion dispersion-treated group (5EG)
Amount adhered and percent inhibition of adhesion of human normal lymphocytes as measured from fluorescence intensity are shown in Table 5 below.

Compound | Amount of human normal lymphocytes adhered (fluorescence intensity) [1] | % Inhibition of adhesion ([1]; human normal lymphocytes) [%] | % Inhibition of adhesion [2] [%] | Amount adhered (fluorescence intensity) [2]
CCCCCCCCCCCCCCC(CCCCCCCCCCCCCC)C(=O)Nc1ccc(COCCOCCO[C@@H]2O[C@H](CO)[C@@H](O[C@@H]3O[C@H](CO)[C@H](O)[C@H](O[C@]4(C(=O)O)C[C@H](O)[C@@H](NC(C)=O)[C@H]([C@H](O)[C@H](O)CO)O4)[C@H]3O)[C@H](O[C@@H]3O[C@@H](C)[C@@H](O)[C@@H](O)[C@@H]3O)[C@H]2O)cc1 [Compound 5A, O-(5-acetamido-3,5-dideoxy-D-glycero-α-D-galacto-2-nonulopyranosylonic acid)-(2→3)-O-β-D-galactopyranosyl-(1→4)-[O-α-L-fucopyranosyl-(1→3)-O-β-D-glucopyranosyl]-(1→1)-5-O-para-(2-tetradecylhexadecanoyl)aminobenzyl-3-oxapentane-1,5-diol] | 6882 | 61.9 | 65.8 | 9773
CCCCCCCCCCCCCCC(CCCCCCCCCCCCCC)C(=O)Nc1ccc(COCCOCCOCCO[C@@H]2O[C@H](CO)[C@@H](O[C@@H]3O[C@H](CO)[C@H](O)[C@H](O[C@]4(C(=O)O)C[C@H](O)[C@@H](NC(C)=O)[C@H]([C@H](O)[C@H](O)CO)O4)[C@H]3O)[C@H](O[C@@H]3O[C@@H](C)[C@@H](O)[C@@H](O)[C@@H]3O)[C@H]2O)cc1 [Compound 5B, O-(5-acetamido-3,5-dideoxy-D-glycero-α-D-galacto-2-nonulopyranosylonic acid)-(2→3)-O-β-D-galactopyranosyl-(1→4)-[O-α-L-fucopyranosyl-(1→3)-O-β-D-glucopyranosyl]-(1→1)-8-O-para-(2-tetradecylhexadecanoyl)aminobenzyl-3,6-dioxaoctane-1,8-diol] | 6993 | – | – | 10045
CCCCCCCCCCCCCCC(CCCCCCCCCCCCCC)C(=O)Nc1ccc(COCCOCCOCCOCCO[C@@H]2O[C@H](CO)[C@@H](O[C@@H]3O[C@H](CO)[C@H](O)[C@H](O[C@]4(C(=O)O)C[C@H](O)[C@@H](NC(C)=O)[C@H]([C@H](O)[C@H](O)CO)O4)[C@H]3O)[C@H](O[C@@H]3O[C@@H](C)[C@@H](O)[C@@H](O)[C@@H]3O)[C@H]2O)cc1 [Compound 5C, O-(5-acetamido-3,5-dideoxy-D-glycero-α-D-galacto-2-nonulopyranosylonic acid)-(2→3)-O-β-D-galactopyranosyl-(1→4)-[O-α-L-fucopyranosyl-(1→3)-O-β-D-glucopyranosyl]-(1→1)-11-O-para-(2-tetradecylhexadecanoyl)aminobenzyl-3,6,9-trioxaundecane-1,11-diol] | 10513 | – | – | 13563
CCCCCCCCCCCCCCC(CCCCCCCCCCCCCC)C(=O)Nc1ccc(COCCOCCOCCOCCOCCO[C@@H]2O[C@H](CO)[C@@H](O[C@@H]3O[C@H](CO)[C@H](O)[C@H](O[C@]4(C(=O)O)C[C@H](O)[C@@H](NC(C)=O)[C@H]([C@H](O)[C@H](O)CO)O4)[C@H]3O)[C@H](O[C@@H]3O[C@@H](C)[C@@H](O)[C@@H](O)[C@@H]3O)[C@H]2O)cc1 [Compound 5D, O-(5-acetamido-3,5-dideoxy-D-glycero-α-D-galacto-2-nonulopyranosylonic acid)-(2→3)-O-β-D-galactopyranosyl-(1→4)-[O-α-L-fucopyranosyl-(1→3)-O-β-D-glucopyranosyl]-(1→1)-5-O-para-(2-tetradecylhexadecanoyl)aminobenzyl-3,6,9,12-tetraoxatetradecane-1,14-diol] | 8817 | – | – | 10324
